From US12319726B2, “Method for treating CD40-mediated diseases” (CASE WESTERN RESERVE UNIVERSITY, priority 2008, dated 2025) come the findings set out here.

Test [1] has as its system human retinal endothelial cells. The test is described as follows: ICAM-1 upregulation in human retinal endothelial cells (flow cytometry). It is filed as cell-based. The note with it: 1 μM, 24 h. On the procedure: FIG. 18 illustrates graphs showing ri CD40-TRAF2,3 blocking peptide inhibits CD40-driven upregulation of ICAM-1. Human retinal endothelial cells were treated with ri control peptide (Ctr P) or ri CD40-TRAF2,3 blocking peptide (T2,3 BP; both at 1 μM) followed by stimulation with CD154 or TNF-α. Expression of ICAM-1 was assessed by flow cytometry at 24 h. Data shown represent Mean±SD. Results are representative of 2 independent experiments. **P<0.01.
Primary human retinal endothelial cells were obtained as described (9) and cultured in complete medium supplemented with endothelial cell growth supplement from bovine pituitary (15 μg/ml; Sigma Chemical, St Louis, MO) and insulin/transferrin/selenium (Sigma Chemical). Cell identity was confirmed by incorporation of acetylated low-density lipoprotein (>90%). Endothelial cells were used between passages 3 to 6. The human Müller cell line MIO M1 (gift from Dr. Gloria Limb; University College London, UK; >95% vimentin^+, CRALBP^+ and GFAP^−) was also used. Endothelial cells were incubated with multimeric human CD154 to induce CD40 stimulation (obtained from Dr. Richard Kornbluth, Multimeric Biotherapeutics Inc., La Jolla, CA) or with a non-functional CD154 mutant (T147N) as control.
Cells were incubated with anti-ICAM-1 mAb (eBiosciences). After fixation with 1% paraformaldehyde, cells were analyzed using an LSR II (Becton Dickinson). […]

The subject of test [2] is retinas subjected to I/R. The test is described as follows: Model of retinal ischemia/reperfusion (I/R), intravitreal peptide. In kind it is in vivo, B6 mice. As to the method:
FIGS. 20(A-C) illustrate images and graphs showing ri CD40-TRAF2,3 blocking peptide protects against loss of ganglion cells and leukocyte infiltration in retinas subjected to I/R. One eye from each B6 and CD40^−/− mouse was subjected to I/R. Contralateral non-ischemic eye was used as control. Eyes subjected to I/R in B6 mice were treated intravitreously with or without ri control peptide, ri CD40-TRAF2,3 blocking peptide (both 1 μg) 30 min prior to increase in IOP. Eyes were collected 2 d after I/R. A marked decrease in the number of ganglion cells is observed in ischemic eyes from B6 treated with ri control peptide or vehicle (original magnification ×400). […] Arrowhead plus asterix identifies a PMN magnified in the inset (original magnification ×600). Scale bar, 50 μm. Number of ganglion cells per mm. Number of infiltrating leukocytes in the inner retina and vitreous per section. GCL=Ganglion cell layer; IPL=Inner plexiform layer; INL=Inner nuclear layer. OPL=Outer plexiform layer; ONL=Outer nuclear layer. Data shown represent Mean±SEM (9 mice per group). *P<0.05; **P<0.01; […].
FIG. 21 illustrates graphs showing ri CD40-TRAF2,3 blocking peptide impairs upregulation of NOS2 and COX-2 in retinas subjected to I/R. One eye of each mouse was treated as above and subjected to I/R. Eyes were collected after 2 d. mRNA levels of NOS2 and COX-2 were assessed by quantitative real time PCR. One non-ischemic eye from a B6 mouse was given an arbitrary value of 1 and data are expressed as fold-increase compared to this animal. Data shown represent Mean±SEM (7-9 mice per group). ***P<0.001.
FIGS. 22(A-B) illustrate graphs and images showing ri CD40-TRAF2,3 blocking peptide impairs upregulation of ICAM-1 and KC/CXCL1 in retinal endothelial cells from retinas subjected to I/R. One eye of each mouse was subjected to I/R. Eyes were collected after 2 d. mRNA levels of ICAM-1 and KC/CXCL1 were assessed by quantitative real time PCR. One non-ischemic eye from a B6 mouse was given an arbitrary value of 1 and data are expressed as fold-increase compared to this animal. Data shown represent Mean±SEM (7-9 mice per group). ***P<0.001. Retinal sections were incubated with Tomato Lectin (labels endothelial cells) plus either anti-ICAM-1 or anti-KC/CXCL1 Ab. Original magnification ×600. GCL=Ganglion cell layer; IPL=Inner plexiform layer; INL=Inner nuclear layer. Scale bar, 10 μm. 6 mice/group.
FIG. 23 illustrates images showing ri CD40-TRAF2,3 blocking peptide impairs NOS2 and KC/CXCL1 upregulation in Müller cells from retinas subjected to I/R. Eyes from B6 mice were treated with control peptide or CD40-TRAF2,3 blocking peptide, subjected to I/R and collected after 2 d. Retinal sections were incubated with anti-Vimentin Ab (labels Müller cells) plus either anti-NOS2 or anti-KC/CXCL1 Ab. Protein expression at the level of Müller cells stalks. […]. Original magnification ×600. Scale bar, 10 μm. 6 mice/group.
FIGS. 24(A-D) illustrate images and graphs showing ri CD40-TRAF2,3 blocking peptide protects against loss of ganglion neurons and inflammation when administered after retinal I/R. One eye from each B6 mouse was subjected to I/R. Non-ischemic eyes were used as controls. Eyes that were subjected to I/R received either ri control peptide or ri CD40-TRAF2,3 blocking peptide 90 min after increase in IOP. Eyes were collected 2 d after I/R. Administration of the blocking peptide protects against ganglion cell loss and infiltration by leukocytes (arrowhead). Original magnification ×400. Scale bar, 50 μm. Number of ganglion cells per mm. Number of leukocytes in the inner retina and vitreous per section. mRNA levels of ICAM-1, KC/CXCL1, NOS2 and COX-2 were assessed by quantitative real time PCR as above. Data shown represent Mean±SEM (7-9 mice per group). **P<0.01; ***P<0.001. GCL=Ganglion cell layer; IPL=Inner plexiform layer; INL=Inner nuclear layer. […]

Setting [3] is: 1 μg intravitreal prior to I/R, 2 d, real time PCR.
Where [4] appears, read: peptide administered 90 min post-retinal ischemia, 2 d, mRNA.
Setting [5] is: prior to I/R, 2 d, immunohistochemistry.

Where a SMILES comes first, the peptide text is derived from it. [ ]: non-standard residue; d: D form.

On to `CC(C)C[C@@H](NC(=O)[C@@H](Cc1c[nH]cn1)NC(=O)CNC(=O)[C@@H](Cc1ccc(O)cc1)NC(=O)CNC(=O)[C@@H](CCCNC(=N)N)NC(=O)[C@@H](CCCCN)NC(=O)[C@@H](CCCCN)NC(=O)[C@@H](CCCNC(=N)N)NC(=O)[C@@H](CCCNC(=N)N)NC(=O)[C@@H](CCC(N)=O)NC(=O)[C@@H](CCCNC(=N)N)NC(=O)[C@@H](CCCNC(=N)N)NC(=O)[C@H](N)CCCNC(=N)N)C(=O)N[C@@H](C(=O)N[C@H](CCC(=O)O)C(=O)N[C@H](CCC(N)=O)C(=O)N[C@@H](C(=O)N[C@H](Cc1c[nH]cn1)C(=O)N[C@H](C)C(=O)N[C@H](C)C(=O)N[C@@H](C(=O)N[C@H](CC(N)=O)C(=O)O)[C@H](C)O)C(C)C)[C@H](C)O` [ri CD40-TRAF2,3 blocking peptide, NH2-rrrqrrkkrgy ghlteqvhaatn-OH] (H-[dR][dR][dR][dQ][dR][dR][dK][dK][dR]G[dY]G[dH][dL][dT][dE][dQ][dV][dH][dA][dA][dT][dN]-OH), for which the “upregulation of ICAM-1 in response to CD154” value in test [1] (CD154 stimulation, P<0.01) is “impaired upregulation of ICAM-1”. In addition, the “TNF-α-induced upregulation of ICAM-1” value in test [1] (TNF-α stimulation) is given as “no effect”. In test [2] (setting [3]), the “COX-2 mRNA levels in retina” value is given as “impaired upregulation”, the “ICAM-1 mRNA levels in retina” value is reported as “significant reduction”, the “KC/CXCL1 mRNA levels in retina” value is “significant reduction” and the “NOS2 mRNA levels in retina” value is “impaired upregulation”. Moreover, in test [2] (1 μg intravitreal prior to I/R, 2 d after I/R), the “PMN infiltration in the inner retina and vitreous” value is “diminished inflammatory infiltrate”. Besides, the “loss of ganglion cells” value in test [2] (1 μg intravitreal prior to I/R, eyes collected 2 d after I/R) is recorded as “significant attenuation in the loss of ganglion cells”. Also, in test [2] (peptide administered 90 min post-retinal ischemia, 2 d), the leukocyte recruitment entry is “protected against”. Further, in test [2] (setting [4]), the “upregulation of COX-2” value is on record as “protected against”, the “upregulation of ICAM-1” value is reported as “protected against”, the “upregulation of KC/CXCL1” value was “protected against” and the “upregulation of NOS2” value is given as “protected against”. The ganglion cell loss result in test [2] (peptide administered 90 min post-retinal ischemia, eyes collected 2 d after I/R) is given as “protected against”. Also, in test [2] (setting [5]), the “expression of ICAM-1 in retinal endothelial cells” value is given as “decreased expression”, the “expression of KC/CXCL1 in Müller cells” value was “impaired expression”, the “expression of KC/CXCL1 in retinal endothelial cells” value is reported as “decreased expression” and the “expression of NOS2 in Müller cells” value is given as “impaired expression”.
